For data set [1], the system named is human sebocytes. As to the kind of experiment: in vitro sebum suppression: 14C-acetate label remaining in sebocytes. Format: cell-based. The following applies: for activity at 1 µM / activity at 10 µM: Homo sapiens, read-out: % of Control. The procedure:
Secondary cultures of human sebocytes obtained from an adult […] were grown in 48-well tissue culture plates (Costar Corp.; Cambridge, Mass.) until two days post-confluence. Sebocyte growth medium consisted of Clonetics Keratinocyte Basal Medium (KBM) supplemented with 14 μg/ml bovine pituitary extract, 0.4 μg/ml hydrocortisone, 5 μg/ml insulin, […], 1.2×10^-10 M cholera toxin, 100 units/ml penicillin, and 100 μg/ml streptomycin. All cultures were incubated at 37° C. in the presence of 7.5% CO2. Medium was changed three times per week.
On the day of experimentation, the growth medium was removed and the sebocytes washed three times with sterile Dulbecco's Modified Eagle Medium (DMEM; phenol red free). Fresh DMEM was added to each sample (triplicates) with 1-5 microliter of test agent solubilized in ethanol. Controls consisted of addition of ethanol alone. Each plate was returned to the incubator for 20 hours.
This was followed by the addition of 14C-acetate buffer (5 mM final concentration, 56 mCi/mmol specific activity). Sebocytes were returned to the incubator for four hours afterwhich each culture was rinsed three times with phosphate buffered saline to remove unbound label. Radioactive label remaining in the sebocytes was harvested and counted using a Beckman scintillation counter.

Data set [2] has as its system human sebocytes. The data set is described as follows: lactate dehydrogenase activity in sebocyte culture supernatant. The conditions noted are these: after 20 hours. Also noted: key: A340 at 5 min minus initial reading; higher = more LDH. It counts as cell-based. The procedure: For the experiments summarized in Tables 1 and 2, lactate dehydrogenase amount was also measured. After 20 hours, 25 μl of supernatant was removed from each well and transferred to a 96-well plate. A vial of lactate dehydrogenase reagent (LD-L-20; Sigma Diagnostics; Cat 228-20) was reconstituted with 20 ml of distilled water. 200 μl of this reconstituted reagent was added to each well and the plate immediately analyzed at 340 nm. After exactly five minutes at room temperature, the plate was re-analyzed at 340 nm. The amount of lactate dehydrogenase activity was calculated by subtracting the initial reading from the five minute reading (this value indicated below in column headed “LDH”). The higher the number, the more lactate dehydrogenase is present. Increased lactate dehydrogenase numbers are associated with cellular crisis. Experimental samples were compared to the value obtained with the ethanol treated control.

Entries after “also recorded” stand apart in the source; their conditions may differ. Where two headings read alike, the source gives them in different places.

For `O=S1(=O)OC(c2ccc(O)cc2)(c2ccc(O)cc2)c2ccccc21` [Phenol Red], the activity at 1 µM in the data set on human sebocytes [1] (Table 2, 1 μM) turned out to be 91.4%. Further, the activity at 10 µM with human sebocytes [1] (Table 2, 10 μM) amounted to 70.9%. Moreover, the LDH in the data set on human sebocytes [2] (Table 2, 1 μM, control 0.154) is on record as 0.169; with human sebocytes [2] (Table 2, 10 μM, control 0.154), 0.237.

`CC1=C(/C=C/C(C)=C/C=C/C(C)=C/CO)C(C)(C)CCC1` [Retinol]: in the data set with human sebocytes [1] (Table 3, 1 μM), the activity at 1 µM stood at 104%. The activity at 10 µM with human sebocytes [1] (Table 3, 10 μM) was 102%.

For the compound `O=C(Nc1ccc(Cl)cc1)Nc1ccc(Cl)c(Cl)c1` [TCC, 3,4,4-trichlorocarbanilide], the “% of Control” value is 70.4% in the data set on human sebocytes [1] (Table 1, 1 μM, 20 hours then 4 hours 14C-acetate); 1.0% with human sebocytes [1] (Table 1, 10 μM, 20 hours then 4 hours 14C-acetate); 0.8% in the data set with human sebocytes [1] (Table 1, 100 μM, 20 hours then 4 hours 14C-acetate); 0.8% in the data set on human sebocytes [1] (Table 1, 1 mM, 20 hours then 4 hours 14C-acetate); 80.4% with human sebocytes [1] (Table 2, 100 nM); 54.6% with human sebocytes [1] (Table 2, 500 nM). Also, the “% of Control” value was 20.9% with human sebocytes [1] (Table 2, 1 μM); 97.6% with human sebocytes [1] (Table 3, 250 nM); 75.6% in the data set on human sebocytes [1] (Table 3, 500 nM); 81.4% in the data set on human sebocytes [1] (Table 3, 1 μM); 4.3% in the data set on human sebocytes [1] (Table 3, 2.5 μM). In the data set on human sebocytes [1] (Table 2), the “sebum suppressive effectiveness compared with Phenol Red” value was “more effective than Phenol Red”. Besides, in the data set with human sebocytes [1] (Table 3), the “sebum suppressive activity in the presence of retinol (retinoid)” value was “improved sebum suppressive activity; also recorded: significantly enhanced”. Also, the sebum suppressive activity result in the data set on human sebocytes [1] (summary of Tables 1-3) is reported as “had sebum suppressive activity”. The LDH with human sebocytes [2] (Table 1, 1 μM, 340 nm five minute minus initial reading, control 0.094) stood at 0.039; with human sebocytes [2] (Table 1, 10 μM, 340 nm five minute minus initial reading, control 0.094), 0.059; in the data set with human sebocytes [2] (Table 1, 100 μM, 340 nm five minute minus initial reading, control 0.094), 0.114; in the data set on human sebocytes [2] (Table 1, 1 mM, 340 nm five minute minus initial reading, control 0.094) it was 0.190; in the data set with human sebocytes [2] (Table 2, 100 nM, control 0.154) it was 0.137; in the data set on human sebocytes [2] (Table 2, 500 nM, control 0.154) it was 0.136. This compound returned an LDH in the data set with human sebocytes [2] (Table 2, 1 μM, control 0.154) of 0.183.

Values taken from US20020018792A1, “Skin care anti-sebum compositions containing 3,4,4-trichlorocarbanilide” (Unilever Home & Personal Care USA, Division of Conopco, Inc., priority 2000, published 2002).
